SMILES strings stand for the structures.

Holding throughout (assay type): functional, cell-based
Common to all, as to settings: human

In data set [1] the target is T1, Solute carrier organic anion transporter family member 1A1 (Rattus norvegicus, UniProt P46720).
T1 sequence (P46720 whole entry): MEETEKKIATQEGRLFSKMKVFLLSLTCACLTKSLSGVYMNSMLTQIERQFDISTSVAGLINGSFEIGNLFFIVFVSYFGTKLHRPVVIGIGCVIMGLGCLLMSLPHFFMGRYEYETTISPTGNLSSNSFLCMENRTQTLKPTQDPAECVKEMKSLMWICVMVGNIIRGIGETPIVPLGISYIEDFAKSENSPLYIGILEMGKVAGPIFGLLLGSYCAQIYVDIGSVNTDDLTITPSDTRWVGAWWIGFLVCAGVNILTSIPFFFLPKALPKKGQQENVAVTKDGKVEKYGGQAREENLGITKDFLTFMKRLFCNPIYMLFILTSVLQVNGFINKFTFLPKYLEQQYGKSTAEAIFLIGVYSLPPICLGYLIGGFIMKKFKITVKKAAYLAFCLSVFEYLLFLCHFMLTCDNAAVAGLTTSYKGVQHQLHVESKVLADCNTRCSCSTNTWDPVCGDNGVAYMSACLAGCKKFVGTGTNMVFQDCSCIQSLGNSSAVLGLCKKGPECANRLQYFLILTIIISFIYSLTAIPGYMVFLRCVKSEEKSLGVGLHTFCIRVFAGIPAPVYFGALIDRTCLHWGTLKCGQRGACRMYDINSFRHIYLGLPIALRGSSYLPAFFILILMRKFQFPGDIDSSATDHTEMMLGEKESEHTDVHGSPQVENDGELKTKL
The data set is described as follows: TP_TRANSPORTER: inhibition of BSP uptake (BSP: 1 uM, Aldosterone: 100 uM) in Oatp1-expressing HeLa cells.

For data set [2], the target named is T1, Solute carrier organic anion transporter family member 1A1. The data set is described as follows: TP_TRANSPORTER: uptake in Oatp1-expressing HeLa cells.
For data set [3] the target is unchanged. The data set is described as follows: TP_TRANSPORTER: inhibition of BSP uptake (BSP: 1 uM, Corticosterone: 100 uM) in Oatp1-expressing HeLa cells.
Data set [4] shares this target. The data set is described as follows: TP_TRANSPORTER: inhibition of BSP uptake (BSP: 1 uM, Hydrocortisone: 100 uM) in Oatp1-expressing HeLa cells.
Data set [5] shares this target. The data set is described as follows: TP_TRANSPORTER: inhibition of BSP uptake (BSP: 1 uM, Spironolactone: 100 uM) in Oatp1-expressing HeLa cells.

In the case of `C[C@]12CCC(=O)C=C1CC[C@@H]1[C@@H]2[C@@H](O)C[C@]2(C=O)[C@@H](C(=O)CO)CC[C@@H]12` [ALDOSTERONE], the Activity entry in data set [1] was “inhibitor [(at a rough estimate) 20 % of control]”.
For `Nc1ccc(C(=O)NCC(=O)O)cc1` [AMINOHIPPURIC ACID], the Activity result in data set [2] was “is not a substrate [-]”.
Take `C[C@]12C[C@H](O)[C@H]3[C@@H](CCC4=CC(=O)CC[C@@]43C)[C@@H]1CC[C@@H]2C(=O)CO` [CORTICOSTERONE]: in data set [3], the Activity result is “inhibitor [(at a rough estimate) 15 % of control]”.
Take `CCCCC[C@H](O)/C=C/[C@H]1[C@H](O)CC(=O)[C@@H]1C/C=C\CCCC(=O)O` [DINOPROSTONE]: in data set [2], the Activity result was “is not a substrate [-]”.
As for `C[C@]12CCC(=O)C=C1CC[C@@H]1[C@@H]2[C@@H](O)C[C@@]2(C)[C@H]1CC[C@]2(O)C(=O)CO` [HYDROCORTISONE], in data set [4], the Activity entry is “inhibitor [(at a rough estimate) 30 % of control]”.
On to `CC(=O)S[C@@H]1CC2=CC(=O)CC[C@]2(C)[C@H]2CC[C@@]3(C)[C@@H](CC[C@@]34CCC(=O)O4)[C@H]12` [SPIRONOLACTONE], for which the Activity result in data set [5] is “inhibitor [(at a rough estimate) 10 % of control]”.

(Values after ChEMBL document CHEMBL2074430, “Transient expression of oatp organic anion transporter in mammalian cells: identification of candidate substrates” (Am J Physiol, 1996).)
